Results published in PubChem BioAssay (NCI).
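Each compound was tested at five concentrations against cells in 96-well plates for 48 hours. The concentration for 50% growth inhibition is given as GI50. TGI is the concentration that stops growth completely.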

Assays:
Assay in all cases: inhibition of tumour cell growth, NCI panel, 48 h
MDA-MB-231 breast = system: MDA-MB-231 breast
HS 578T breast = system: HS 578T breast
LOX IMVI melanoma = system: LOX IMVI melanoma
UO-31 renal = system: UO-31 renal
CAKI-1 renal = system: CAKI-1 renal
SN12C renal = system: SN12C renal
HCT-15 colon = system: HCT-15 colon
COLO 205 colon = system: COLO 205 colon
A498 renal = system: A498 renal
SR leukemia = system: SR leukemia
HOP-62 NSCLC = system: HOP-62 NSCLC
OVCAR-5 ovarian = system: OVCAR-5 ovarian
HOP-92 NSCLC = system: HOP-92 NSCLC
HT29 colon = system: HT29 colon
HL-60(TB) leukemia = system: HL-60(TB) leukemia
NCI-H23 lung = system: NCI-H23 lung
MALME-3M melanoma = system: MALME-3M melanoma
SK-MEL-28 melanoma = system: SK-MEL-28 melanoma
DU-145 prostate = system: DU-145 prostate
CCRF-CEM leukemia = system: CCRF-CEM leukemia
U251 CNS = system: U251 CNS
KM12 colon = system: KM12 colon
NCI/ADR-RES ovarian = system: NCI/ADR-RES ovarian
SF-295 CNS = system: SF-295 CNS
NCI-H460 lung = system: NCI-H460 lung
SK-MEL-2 melanoma = system: SK-MEL-2 melanoma
SK-OV-3 ovarian = system: SK-OV-3 ovarian
OVCAR-8 ovarian = system: OVCAR-8 ovarian
IGROV1 ovarian = system: IGROV1 ovarian
MDA-MB-435 = system: MDA-MB-435
HCC-2998 colon = system: HCC-2998 colon
UACC-62 melanoma = system: UACC-62 melanoma
HCT-116 colon = system: HCT-116 colon
SW-620 colon = system: SW-620 colon
ACHN renal = system: ACHN renal
NCI-H226 lung = system: NCI-H226 lung
OVCAR-4 ovarian = system: OVCAR-4 ovarian
K-562 leukemia = system: K-562 leukemia
T-47D breast = system: T-47D breast
EKVX NSCLC = system: EKVX NSCLC
MDA-N = system: MDA-N
A549 NSCLC = system: A549 NSCLC
NCI-H522 lung = system: NCI-H522 lung
BT-549 breast = system: BT-549 breast
OVCAR-3 ovarian = system: OVCAR-3 ovarian
PC-3 prostate = system: PC-3 prostate
TK-10 renal = system: TK-10 renal
UACC-257 melanoma = system: UACC-257 melanoma
SNB-19 CNS = system: SNB-19 CNS
MOLT-4 leukemia = system: MOLT-4 leukemia
RPMI-8226 leukemia = system: RPMI-8226 leukemia
786-0 renal = system: 786-0 renal
SK-MEL-5 melanoma = system: SK-MEL-5 melanoma
SF-539 CNS = system: SF-539 CNS
RXF 393 renal = system: RXF 393 renal
M14 melanoma = system: M14 melanoma
SNB-75 CNS = system: SNB-75 CNS
MCF7 breast = system: MCF7 breast
SF-268 CNS = system: SF-268 CNS

Compound: N#C/C(=C/NC(=S)NCc1ccccc1)C(N)=O
- TGI (MDA-MB-231 breast): > 100 µM
- TGI (HS 578T breast): > 100 µM
- TGI (LOX IMVI melanoma): > 100 µM
- TGI (UO-31 renal): > 100 µM
- TGI (CAKI-1 renal): > 100 µM
- TGI (SN12C renal): > 100 µM
- TGI (HCT-15 colon): > 100 µM
- TGI (COLO 205 colon): > 100 µM
- TGI (A498 renal): > 100 µM
- TGI (SR leukemia): > 100 µM
- TGI (HOP-62 NSCLC): > 100 µM
- TGI (OVCAR-5 ovarian): > 100 µM
- TGI (HOP-92 NSCLC): > 100 µM
- TGI (HT29 colon): > 100 µM
- TGI (HL-60(TB) leukemia): > 100 µM
- TGI (NCI-H23 lung): > 100 µM
- TGI (MALME-3M melanoma): > 100 µM
- TGI (SK-MEL-28 melanoma): > 100 µM
- TGI (DU-145 prostate): > 100 µM
- TGI (CCRF-CEM leukemia): > 100 µM
- TGI (U251 CNS): > 100 µM
- TGI (KM12 colon): > 100 µM
- TGI (NCI/ADR-RES ovarian): > 100 µM
- TGI (SF-295 CNS): > 100 µM
- TGI (NCI-H460 lung): > 100 µM
- TGI (SK-MEL-2 melanoma): > 100 µM
- TGI (SK-OV-3 ovarian): > 100 µM
- TGI (OVCAR-8 ovarian): > 100 µM
- TGI (IGROV1 ovarian): > 100 µM
- TGI (MDA-MB-435): > 100 µM
- TGI (HCC-2998 colon): > 100 µM
- TGI (UACC-62 melanoma): > 100 µM
- TGI (HCT-116 colon): > 100 µM
- TGI (SW-620 colon): > 100 µM
- TGI (ACHN renal): > 100 µM
- TGI (NCI-H226 lung): > 100 µM
- TGI (OVCAR-4 ovarian): > 100 µM
- TGI (K-562 leukemia): > 100 µM
- TGI (T-47D breast): > 100 µM
- TGI (EKVX NSCLC): > 100 µM
- TGI (MDA-N): > 100 µM
- TGI (A549 NSCLC): > 100 µM
- TGI (NCI-H522 lung): > 100 µM
- GI50 (BT-549 breast): > 100 µM
- TGI (BT-549 breast): > 100 µM
- TGI (OVCAR-3 ovarian): > 86.1 µM
- TGI (PC-3 prostate): > 100 µM
- GI50 (TK-10 renal): > 100 µM
- TGI (TK-10 renal): > 100 µM
- TGI (UACC-257 melanoma): > 100 µM
- TGI (SNB-19 CNS): > 100 µM
- TGI (MOLT-4 leukemia): > 100 µM
- TGI (RPMI-8226 leukemia): > 100 µM
- TGI (786-0 renal): > 100 µM
- TGI (SK-MEL-5 melanoma): > 100 µM
- TGI (SF-539 CNS): > 100 µM
- TGI (RXF 393 renal): > 100 µM
- TGI (M14 melanoma): > 100 µM
- TGI (SNB-75 CNS): > 100 µM
- TGI (MCF7 breast): > 100 µM
- TGI (SF-268 CNS): > 100 µM
